The values below come from patent publication US4987132A, “Saturated heterocyclic carboxamide derivatives” (Yamanouchi Pharmaceutical Co., Ltd., priority 1987, dated 1991).

Structures can show the parent of a compound that is named as a salt. Where two headings read alike, the source gives them in different places.

Usually IC50 stands for the concentration that inhibits the measured activity by half.

Common to all, as to assay type: cell-based, rabbit (Japan white, male)
Assay [1] concerns platelet activating factor (PAF)-induced rabbit platelet aggregation in plasma. The assay is described as follows: PAF-induced platelet aggregation in rabbit platelet rich plasma. Here is the method: (§1) Method: Nine volumes of blood were drawn from the central ear artery of male rabbit (Japan white, 3 kg) directly into plastic syringe containing 1 volume of 3.8% sodium citrate. The blood was centrifuged at 270×g for 10 minutes at room temperature and the platelet rich plasma (PRP) was removed. The pellet was further centrifuged at 1,100×g for 15 minutes. The supernatant was used as platelet poor plasma (PPP). The platelet concentration was adjusted to 5×10^5 cells/μl with PPP. Platelet aggregation was measured by the method of G. V. R. Born and M. J. Cross [Journal of Physiology, 168, 178-195 (1963)] using a HEMA TRACER (Nikou Bio Science, Japan). Varying concentration of compounds were added to the PRP 2 minutes prior to PAF (10^-8 M). The extent of platelet aggregation was determined by the maximum change of light transmission, assigning the transmission of unstimulated PRP to be 0% and that of PPP to be as 100%. Percent inhibition with compound was calculated by dividing the percent aggregation in the presence of compound by that in the control, and then the IC50 values were calculated.

Assay [2] deals with platelet aggregation induced by arachidonic acid. The assay is described as follows: platelet aggregation induced by arachidonic acid. The note with it: arachidonic acid 1×10^-4 M; data not shown. Here is the method: as §1, with “Varying concentration of compounds were added to the PRP 2 minutes prior to PAF (10^-8 M).” left out
Assay [3] concerns platelet aggregation induced by ADP. The assay is described as follows: platelet aggregation induced by ADP. The following applies: ADP 3×10^-6 M; data not shown. Here is the method: as §1, with “Varying concentration of compounds were added to the PRP 2 minutes prior to PAF (10^-8 M).” left out
Assay [4] has as its system platelet aggregation induced by collagen. The assay is described as follows: platelet aggregation induced by collagen. The following applies: collagen 10 μg/ml; data not shown. Here is the method: as §1, with “Varying concentration of compounds were added to the PRP 2 minutes prior to PAF (10^-8 M).” left out
Where [5] appears, read: Oryctolagus cuniculus, Platelet, Table 1, PAF 10^-8 M, compound added 2 minutes prior to PAF, rabbit PRP, read-out: IC50.
Where [6] appears, read: Oryctolagus cuniculus, Platelet, PAF 10^-8 M, compound added 2 minutes prior to PAF, rabbit PRP, read-out: IC50 values.
The mark [7] stands for this setting: Oryctolagus cuniculus, Platelet.

On to `O=C(C1CSC(c2cccnc2)N1)N1CCN(CCCOc2ccccc2)CC1` (stereo not drawn) [Example 65], for which, in assay [1] (setting [5]), the IC50 was 120 nM.
The same measure, in the same setting: under `CCCCCCN1CCN(C(=O)C2CSC(c3cccnc3)N2)CC1` (stereo not drawn) [Example 92] stands 260 nM.
As to `CC(CCN1CCN(C(=O)C2CSC(c3cccnc3)N2)CC1)c1ccccc1` (stereo not drawn) [Example 142], in assay [2], the “inhibition of platelet aggregation induced by arachidonic acid” value (“inhibition … by arachidonic acid” below) is “did not inhibit”. The “inhibition of platelet aggregation induced by ADP” value (from here on “inhibition … by ADP”) in assay [3] is given as “did not inhibit”. Also, the IC50 in assay [1] (setting [6]) was in the range of 28 to 85 nM. Further, the “inhibition of platelet aggregation induced by collagen” value (from here on “inhibition … by collagen”) in assay [4] is “did not inhibit”.
In the case of `O=C(NCc1ccc(OCCCCc2ccccc2)cc1)C1CSC(c2cccnc2)N1` (stereo not drawn) [Example 23, N-2-(3-pyridyl)thiazolidine-4-carboxamide dihydrochloride], the IC50 in assay [1] (setting [5]) was found to be 430 nM.
Consider `COc1cc(CNC(=O)C2CSC(c3cccnc3)N2)ccc1OCCCCc1ccccc1` (stereo not drawn) [Example 59], for which the IC50 in assay [1] (setting [5]) is 210 nM.
In the case of `CCCCCCCN1CCCN(C(=O)C2CSC(c3cccnc3)N2)CC1` (stereo not drawn) [Example 80], the IC50 in assay [1] (setting [5]) amounted to 340 nM.
Same read-out and setting: the same measure for `O=C(C1CSC(c2cccnc2)N1)N1CCCN(Cc2ccccc2)CC1` (stereo not drawn) [Example 76]: 900 nM; for `O=C(C1CSC(c2cccnc2)N1)N1CCC(CCc2ccccc2)CC1` (stereo not drawn) [Example 72]: 900 nM.
Turning to `O=C(C1CSC(c2cccnc2)N1)N1CCN(CCCCCc2ccccc2)CC1` (stereo not drawn) [Example 85], the “inhibition … by arachidonic acid” value in assay [2] is recorded as “did not inhibit”. The “inhibition … by ADP” value in assay [3] is “did not inhibit”. The IC50 in assay [1] (setting [6]) was 28 to 85 nM; in assay [1] (setting [5]) it was 72 nM. In addition, the “inhibition … by collagen” value in assay [4] is reported as “did not inhibit”.
For the molecule `CCCCCCCN1CCN(C(=O)C2CSC(c3cccnc3)N2)CC1` (stereo not drawn) [Example 71], the “inhibition … by arachidonic acid” value in assay [2] is “did not inhibit”. Also, the “inhibition … by ADP” value in assay [3] was “did not inhibit”. The IC50 in assay [1] (setting [6]) was 28 to 85 nM; in assay [1] (setting [5]), 64 nM. The “inhibition … by collagen” value in assay [4] was “did not inhibit”.
Consider `Cl.Cl.Cl.O=C(C1CSC(c2cccnc2)N1)N1CCN(CCCCc2ccccc2)CC1` (stereo not drawn) [Example 49, 1-(4-phenylbutyl)-4-[2-(3-pyridyl)thiazolidin-4-ylcarbonyl]piperazine trihydrochloride], for which, in assay [2], the “inhibition … by arachidonic acid” value was “did not inhibit”. In assay [3], the “inhibition … by ADP” value is reported as “did not inhibit”. Further, the values for the IC50 in assay [1] (setting [6]) and in assay [1] (setting [5]) were 28 to 85 nM and 85 nM, respectively. For the same molecule, the “inhibition … by collagen” value in assay [4] is given as “did not inhibit”.
On to `O=C(C1CSC(c2cccnc2)N1)N1CCN(CCCc2ccc(O)cc2)CC1` (stereo not drawn) [Example 121], for which the IC50 in assay [1] (setting [5]) was determined as 190 nM.
Same read-out and setting: under `O=C(CN1CCN(C(=O)C2CSC(c3cccnc3)N2)CC1)c1ccccc1` (stereo not drawn) [Example 66] stands 430 nM.
As to `CCCCCCCCCCN1CCN(C(=O)C2CSC(c3cccnc3)N2)CC1` (stereo not drawn) [Example 81, 1-decyl-4-[2-(3-pyridyl)thiazolidin-4-ylcarbonyl]piperazine trihydrochloride], in assay [2], the “inhibition … by arachidonic acid” value is listed as “did not inhibit”. The “inhibition … by ADP” value in assay [3] is on record as “did not inhibit”. Moreover, the IC50 in assay [1] (setting [6]) is 28 to 85 nM; in assay [1] (setting [5]), 28 nM. In assay [4], the “inhibition … by collagen” value is “did not inhibit”.
Take `O=C(C1CSC(c2cccnc2)N1)N1CCN(Cc2ccccc2)CC1` (stereo not drawn) [Example 48, 1-benzyl-4-[2(3-pyridyl)thiazolidin-4-ylcarbonyl]piperazine trihydrochloride]: the IC50 in assay [1] (setting [5]) stood at 450 nM.
For the molecule `N#Cc1ccc(CCCN2CCN(C(=O)C3CSC(c4cccnc4)N3)CC2)cc1` (stereo not drawn) [Example 128], the IC50 in assay [1] (setting [5]) was found to be 970 nM.
Take `CC(C)CCCN1CCN(C(=O)C2CSC(c3cccnc3)N2)CC1` (stereo not drawn) [Example 93]: the IC50 in assay [1] (setting [5]) came out at 630 nM.
Consider `O=C(C1CSC(c2cccnc2)N1)N1CCC(c2ccccc2)CC1` (stereo not drawn) [Example 46, 4-phenyl-1-[2-(3-pyridyl)thiazolidin-4-ylcarbonyl]piperidine dihydrochloride], for which the IC50 in assay [1] (setting [5]) came out at 650 nM.
Same read-out and setting: the same measure for `CC(C)CCCOc1ccc(CNC(=O)C2CSC(c3cccnc3)N2)cc1` (stereo not drawn) [Example 56]: 120 nM; for `CN(Cc1ccc(OCCCc2ccccc2)cc1)C(=O)C1CSC(c2cccnc2)N1` (stereo not drawn) [Example 89]: 400 nM.
Same read-out and setting: the same measure for `O=C(NCc1ccc(OCC2CCCC2)cc1)C1CSC(c2cccnc2)N1` (stereo not drawn) [Example 57]: 200 nM.
Same read-out and setting: under `Cc1ncccc1C1NC(C(=O)N2CCN(CCCc3ccccc3)CC2)CS1` (stereo not drawn) [Example 97] stands 120 nM; under `CN(Cc1ccccc1)C(=O)C1CSC(c2cccnc2)N1` (stereo not drawn) [Example 22, N-benzyl-N-methyl-2-(3-pyridyl)thiazolidine-4-carboxamide dihydrochloride], 790 nM.
Regarding `O=C(C1CSC(c2cccnc2)N1)N1CCN(CCCc2ccc([N+](=O)[O-])cc2[N+](=O)[O-])CC1` (stereo not drawn) [Example 125], half-maximal inhibition in assay [1] (setting [7]) (IC50) required 450 nM.
With `CC(C)CCOc1ccc(CNC(=O)C2CSC(c3cccnc3)N2)cc1` (stereo not drawn) [Example 54, N-[p-(3-methylbutoxy)benzyl]-2-(3-pyridyl)thiazolidine-4-carboxamide dihydrochloride], the half-maximal inhibitory concentration (IC50) in assay [1] (setting [5]) was 240 nM.
`Cc1ccccc1CCCN1CCN(C(=O)C2CSC(c3cccnc3)N2)CC1` (stereo not drawn) [Example 127]: the IC50 in assay [1] (setting [5]) was determined as 460 nM.
Same read-out and setting: under `Nc1ccc(CCCN2CCN(C(=O)C3CSC(c4cccnc4)N3)CC2)cc1` (stereo not drawn) [Example 126] stands 180 nM; under `O=C(NCc1ccc(OCCCc2ccccc2)cc1)C1CSC(c2cccnc2)N1` (stereo not drawn) [Example 58], 390 nM; under `O=C(C1CSC(c2cccnc2)N1)N1CCN(c2ccccc2)CC1` (stereo not drawn) [Example 32, trihydrochloride], 490 nM.
`COc1ccc(CCCN2CCN(C(=O)C3CSC(c4cccnc4)N3)CC2)cc1` (stereo not drawn) [Example 120]: the IC50 in assay [1] (setting [5]) stood at 170 nM.
Still for that read-out and setting: under `CCCCCCCOc1ccc(CNC(=O)C2CSC(c3cccnc3)N2)cc1` (stereo not drawn) [Example 24, N-(p-Heptyloxybenzyl)-2-(3-pyridyl)thiazolidine-4-carboxamide dihydrochloride] stands 250 nM; under `O=C(NCc1ccc(OCCCOc2ccccc2)cc1)C1CSC(c2cccnc2)N1` (stereo not drawn) [Example 60], 760 nM; under `O=C(C1CSC(c2cccnc2)N1)N1CCN(CCCc2ccc(Cl)cc2)CC1` (stereo not drawn) [Example 123], 180 nM.
As for `CCCCc1ccc(CNC(=O)C2CSC(c3cccnc3)N2)cc1` (stereo not drawn) [Example 61], the IC50 in assay [1] (setting [5]) stood at 770 nM.
Same read-out and setting: the same measure for `O=C(C1CSC(c2cccnc2)N1)N1CCC(Cc2ccccc2)CC1` (stereo not drawn) [Example 36, 4-benzyl-1-[2-(3-pyridyl)thiazolidin-4-ylcarbonyl]piperidine dihydrochloride]: 860 nM; for `O=C(NNc1ccccc1)C1CSC(c2cccnc2)N1` (stereo not drawn) [Example 50, N'-phenyl-2-(3-pyridyl)thiazolidine-4-carbohydrazide]: 800 nM.
Same read-out and setting: under `CC(C)COc1ccc(CNC(=O)C2CSC(c3cccnc3)N2)cc1` (stereo not drawn) [Example 55] stands 160 nM.
Still for that read-out and setting: under `Cc1ccc(CN2CCN(C(=O)C3CSC(c4cccnc4)N3)CC2)cc1` (stereo not drawn) [Example 63] stands 500 nM.
In assay [1] (setting [7]), `O=C(NC1CCCCC1)C1CSC(c2cccnc2)N1` (stereo not drawn) [Example 34, N-cyclohexyl-2-(3-pyridyl)thiazolidine-4-carboxamide dihydrochloride] displayed an IC50 of 950 nM.
On to `CCCCCCN1CCN(C(=O)C2CSC(c3cccnc3)N2)CC1` (stereo not drawn) [Example 117], for which the IC50 in assay [1] (Table 1, PAF 10^-8 M, compound added 2 minutes prior to PAF, rabbit PRP, read-out: IC50) was 260 nM.
Consider `Cc1ccc(CNC(=O)C2CSC(c3cccnc3)N2)cc1` (stereo not drawn) [Example 20, N-(p-Methylbenzyl)-2-(3-pyridyl)thiazolidine-4-carboxamide dihydrochloride], for which, in assay [1] (setting [5]), the IC50 stood at 800 nM.
As to `O=C(C1CSC(c2cccnc2)N1)N1CCN(CCc2ccccc2)CC1` (stereo not drawn) [Example 84], the IC50 in assay [1] (setting [5]) was 220 nM.
Same read-out and setting: the same measure for `O=C(C1CSC(c2cccnc2)N1)N1CCN(CCCc2ccc(F)cc2)CC1` (stereo not drawn) [Example 124]: 180 nM.
The same measure, in the same setting: under `O=C(C1CSC(c2cccnc2)N1)N1CCN(CC=Cc2ccccc2)CC1` (stereo not drawn) [Example 64] stands 390 nM.
